Assay results: patent US20050208496A1, “Methods of testing for bronchial asthma or chronic obstructive pulmonary disease” (Genox Research, Inc., priority 2002, published 2005)
Read-outs that look alike come from different tables or passages of the source.

Test system: respiratory epithelial cells
Details: IL-13 vs no stimulation

Substance: IL-13: human IL-13 (Peprotech, Inc.) added to the medium at 50 ng/mL to stimulate respiratory epithelial cells
- BENE (33331_at) expression change (lot 1 Day 3 IMM): −2.8
- CRA (1230_g_at) expression change (lot 1 Day 3 IMM): −2.3
- CTSL2 (40717_at) expression change (lot 1 Day 3 IMM): −2.2
- DUSP1 (1005_at) expression change (lot 1 Day 3 IMM): −2.4
- IGFBP3 (37319_at) expression change (lot 1 Day 3 IMM): −2
- IGFBP6 (1736_at) expression change (lot 1 Day 3 IMM): −2.8
- MMP9 (31859_at) expression change (lot 1 Day 3 IMM): −7.3
- MMP10 (1006_at) expression change (lot 1 Day 3 IMM): −3.4
- MSMB (32149_at) expression change (lot 1 Day 3 IMM): −3.7
- NDRG1 (36933_at) expression change (lot 1 Day 3 IMM): −2.3
- NOTCH3 (38750_at) expression change (lot 1 Day 3 IMM): −3.5
- PFTK1 (36502_at) expression change (lot 1 Day 3 IMM): −2.6
- PSCA (33792_at) expression change (lot 1 Day 3 IMM): −3.9
- SERPINA3 (33825_at) expression change (lot 1 Day 3 IMM): −3.8
- SERPINE1 (672_at) expression change (lot 1 Day 3 IMM): −7.7
- SERPINE1 (38125_at) expression change (lot 1 Day 3 IMM): −4.2
- TSPAN-5 (40990_at) expression change (lot 1 Day 3 IMM): −2.8
- AGR2 (38827_at) expression change (lot 1 Day 7 AI): −2.7
- AKR1B10 (37482_at) expression change (lot 1 Day 7 AI): −7.5
- AKR1C3 (37399_at) expression change (lot 1 Day 7 AI): −4
- ANXA10 (32349_at) expression change (lot 1 Day 7 AI): −2.5
- APM2 (32527_at) expression change (lot 1 Day 7 AI): −3.8
- AREG (34898_at) expression change (lot 1 Day 7 AI): −4.8
- BCAS1 (37821_at) expression change (lot 1 Day 7 AI): −3.7
- BENE (33331_at) expression change (lot 1 Day 7 AI): −7.3
- C4.4A (41641_at) expression change (lot 1 Day 7 AI): −2.5
- CRA (1230_g_at) expression change (lot 1 Day 7 AI): −2
- DEFB2 (32464_at) expression change (lot 1 Day 7 AI): −4.3
- ECM1 (37600_at) expression change (lot 1 Day 7 AI): −4.7
- EPHA1 (1108_s_at) expression change (lot 1 Day 7 AI): −3.2
- ETFB (36881_at) expression change (lot 1 Day 7 AI): −2
- FABP5 (39799_at) expression change (lot 1 Day 7 AI): −4.2
- GABRE (34280_at) expression change (lot 1 Day 7 AI): −2
- GPNMB (38379_at) expression change (lot 1 Day 7 AI): 3.6
- HLA-DPB1 (38095_i_at) expression change (lot 1 Day 7 AI): −4.4
- HLA-DPB1 (38096_f_at) expression change (lot 1 Day 7 AI): −2.6
- IGFBP3 (1586_at) expression change (lot 1 Day 7 AI): −2.4
- IGFBP3 (37319_at) expression change (lot 1 Day 7 AI): −2.7
- IGFBP6 (1736_at) expression change (lot 1 Day 7 AI): −7.7
- IMPA2 (36496_at) expression change (lot 1 Day 7 AI): −2
- MMP9 (31859_at) expression change (lot 1 Day 7 AI): −10.9
- MN1 (37283_at) expression change (lot 1 Day 7 AI): −3.2
- MSMB (32149_at) expression change (lot 1 Day 7 AI): −11.7
- NCALD (38803_at) expression change (lot 1 Day 7 AI): −2.8
- NDRG1 (36933_at) expression change (lot 1 Day 7 AI): −3.6
- NOTCH3 (38750_at) expression change (lot 1 Day 7 AI): −4.6
- PSCA (33792_at) expression change (lot 1 Day 7 AI): −5.8
- PTK2B (33804_at) expression change (lot 1 Day 7 AI): −6.4
- PTPRZ1 (1364_at) expression change (lot 1 Day 7 AI): −3.7
- RARRES1 (33505_at) expression change (lot 1 Day 7 AI): −3.3
- RDC1 (34288_at) expression change (lot 1 Day 7 AI): −5.3
- RTP801 (39827_at) expression change (lot 1 Day 7 AI): −2
- S100A8 (41096_at) expression change (lot 1 Day 7 AI): −6.2
- SERPINA3 (33825_at) expression change (lot 1 Day 7 AI): −14.1
- SERPINB1 (33305_at) expression change (lot 1 Day 7 AI): −2.3
- SERPINB5 (862_at) expression change (lot 1 Day 7 AI): −2.2
- SERPINE1 (672_at) expression change (lot 1 Day 7 AI): −7.8
- SERPINE1 (38125_at) expression change (lot 1 Day 7 AI): −18.3
- STK39 (39120_at) expression change (lot 1 Day 7 AI): −2.9
- TSPAN-5 (40990_at) expression change (lot 1 Day 7 AI): −3.6
- VRP (38223_at) expression change (lot 1 Day 7 AI): −2.5
- c-fos (1916_s_at) expression change (lot 1 Day 7 AI): −2.6
- AKR1B10 (37482_at) expression change (lot 1 Day 7 IMM): −6.7
- AKR1C3 (37399_at) expression change (lot 1 Day 7 IMM): −2.3
- APM2 (32527_at) expression change (lot 1 Day 7 IMM): −6.2
- AREG (34898_at) expression change (lot 1 Day 7 IMM): −5.2
- BENE (33331_at) expression change (lot 1 Day 7 IMM): −4.7
- ECM1 (37600_at) expression change (lot 1 Day 7 IMM): −18.4
- FABP5 (39799_at) expression change (lot 1 Day 7 IMM): −3.7
- GPNMB (38379_at) expression change (lot 1 Day 7 IMM): 4.9
- IGFBP3 (1586_at) expression change (lot 1 Day 7 IMM): −3.1
- IGFBP3 (37319_at) expression change (lot 1 Day 7 IMM): −3.1
- IGFBP6 (1736_at) expression change (lot 1 Day 7 IMM): −5.4
- MMP9 (31859_at) expression change (lot 1 Day 7 IMM): −16
- NDRG1 (36933_at) expression change (lot 1 Day 7 IMM): −2.4
- NOTCH3 (38750_at) expression change (lot 1 Day 7 IMM): −2.7
- PFTK1 (36502_at) expression change (lot 1 Day 7 IMM): −3.2
- PTK2B (33804_at) expression change (lot 1 Day 7 IMM): −4.1
- RARRES1 (1042_at) expression change (lot 1 Day 7 IMM): −3.5
- RARRES1 (33505_at) expression change (lot 1 Day 7 IMM): −2.7
- RDC1 (34288_at) expression change (lot 1 Day 7 IMM): −2.2
- SEC14L2 (32817_at) expression change (lot 1 Day 7 IMM): −2.9
- SERPINA3 (33825_at) expression change (lot 1 Day 7 IMM): −5.9
- SERPINB1 (33305_at) expression change (lot 1 Day 7 IMM): −2.1
- SERPINB5 (862_at) expression change (lot 1 Day 7 IMM): −2.5
- SERPINE1 (672_at) expression change (lot 1 Day 7 IMM): −31.3
- SERPINE1 (38125_at) expression change (lot 1 Day 7 IMM): −20.1
- STK39 (39120_at) expression change (lot 1 Day 7 IMM): −2
- TSPAN-5 (40990_at) expression change (lot 1 Day 7 IMM): −2.8
- c-fos (1915_s_at) expression change (lot 1 Day 7 IMM): −4.3
- c-fos (1916_s_at) expression change (lot 1 Day 7 IMM): −4.7
- AKR1B10 (37482_at) expression change (lot 2 Day 3 AI): −7.1
- AKR1C3 (37399_at) expression change (lot 2 Day 3 AI): −2.6
- ANXA10 (32349_at) expression change (lot 2 Day 3 AI): −7.5
- APM2 (32527_at) expression change (lot 2 Day 3 AI): −2.7
- AREG (34898_at) expression change (lot 2 Day 3 AI): −14.6
- BCAS1 (37821_at) expression change (lot 2 Day 3 AI): −4.6
- BDKRB2 (39310_at) expression change (lot 2 Day 3 AI): −2.4
- BENE (33331_at) expression change (lot 2 Day 3 AI): −4.8
- CRA (1230_g_at) expression change (lot 2 Day 3 AI): −3.4
- CTSL2 (40717_at) expression change (lot 2 Day 3 AI): −3.2
- DUSP1 (1005_at) expression change (lot 2 Day 3 AI): −4.3
- EPHA1 (1108_s_at) expression change (lot 2 Day 3 AI): −2.8
- FABP5 (39799_at) expression change (lot 2 Day 3 AI): −3
- GPNMB (38379_at) expression change (lot 2 Day 3 AI): −2.2
- IGFBP3 (1586_at) expression change (lot 2 Day 3 AI): −2.9
- IGFBP3 (37319_at) expression change (lot 2 Day 3 AI): −3
